Assay [1] has as its target PI3K-α (PIK3CA) in MDA-MB-453 cells (Homo sapiens, UniProt P42336). The experiment in a line: PI3K-Alpha Kinase (PIK3CA) activity in vitro cell based assay (AlphaLisa SureFire). In a few lines:
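Serum-free MDA-MB-453 cells with 1 μg/mL insulin treated 3 h with a 10-point compound series in 0.3% DMSO; lysates analysed by AlphaLisa SureFire. Relative IC50 from 4-parameter fit of % inhibition versus DMSO (max) and 1 μM GDC-0032 (min) controls, duplicates.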
In general terms: Bead proximity is the source of the signal in Alpha formats.

Assay [2] has as its target T1, human full length PIK3KA Wild-type (p110α/p85α complex) (Homo sapiens, UniProt P42336).
T1 construct: Recombinant, catalytically active human full length PIK3KA Wild-type and H1047R mutant were purchased; 6xHis (N); purchased EMD Millipore Sigma 14-602M
In words: PI3K-Alpha Kinase (PIK3CA) biochemical activity, wild-type (ADP-Glo). As to conditions: 20 uM ATP. An outline of the steps: (§1)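 ADP formation, measured by ADP-Glo luminescence after reaction to about 10% ATP conversion at 27° C., gives 10-point 4-parameter IC50 curves normalized to no-enzyme and DMSO controls. Lipid substrate was PIP2diC8 or Soy PI at 50 uM, with 20 uM ATP. WT or H1047R p110α/p85α complex (1-5 nM) was preincubated 1 h with compound.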
Background: ADP-Glo first removes unused ATP, then detects ADP through luciferase.

In assay [3] the target is T2, human full length PIK3KA H1047R mutant (p110α/p85α complex) (Homo sapiens, UniProt P42336, H1047R).
T2 construct: Recombinant, catalytically active human full length PIK3KA Wild-type and H1047R mutant were purchased; 6xHis (N); purchased EMD Millipore Sigma 14-792M
T2 sequence (P42336 whole entry H1047R): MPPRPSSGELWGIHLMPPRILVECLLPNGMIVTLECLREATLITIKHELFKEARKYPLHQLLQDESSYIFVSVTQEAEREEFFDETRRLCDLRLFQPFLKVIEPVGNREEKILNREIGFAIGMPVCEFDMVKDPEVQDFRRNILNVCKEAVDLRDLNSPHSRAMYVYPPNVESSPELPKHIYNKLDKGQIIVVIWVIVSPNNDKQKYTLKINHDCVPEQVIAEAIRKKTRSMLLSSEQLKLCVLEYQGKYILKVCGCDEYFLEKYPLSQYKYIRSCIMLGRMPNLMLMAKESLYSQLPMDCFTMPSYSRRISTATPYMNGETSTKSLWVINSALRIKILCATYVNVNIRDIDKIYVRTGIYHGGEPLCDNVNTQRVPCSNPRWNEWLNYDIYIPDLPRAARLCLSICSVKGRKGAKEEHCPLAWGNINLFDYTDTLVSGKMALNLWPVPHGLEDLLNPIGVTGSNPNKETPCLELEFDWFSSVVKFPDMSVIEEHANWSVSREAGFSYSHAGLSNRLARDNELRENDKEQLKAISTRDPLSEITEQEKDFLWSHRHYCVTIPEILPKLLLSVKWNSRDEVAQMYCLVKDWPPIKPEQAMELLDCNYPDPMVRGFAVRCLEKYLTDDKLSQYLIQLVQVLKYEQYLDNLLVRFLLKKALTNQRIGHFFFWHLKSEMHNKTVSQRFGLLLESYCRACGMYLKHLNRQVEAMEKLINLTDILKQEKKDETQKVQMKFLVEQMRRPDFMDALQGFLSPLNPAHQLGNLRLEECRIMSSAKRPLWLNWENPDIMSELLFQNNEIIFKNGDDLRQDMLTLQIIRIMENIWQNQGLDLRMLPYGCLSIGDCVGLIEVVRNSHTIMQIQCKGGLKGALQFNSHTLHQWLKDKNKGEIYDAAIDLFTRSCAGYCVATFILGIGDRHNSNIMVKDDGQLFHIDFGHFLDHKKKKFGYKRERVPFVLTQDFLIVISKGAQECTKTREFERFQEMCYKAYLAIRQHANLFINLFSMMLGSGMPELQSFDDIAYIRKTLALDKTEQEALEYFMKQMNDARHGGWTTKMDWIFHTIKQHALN
T2 sequence (P27986 whole entry partner): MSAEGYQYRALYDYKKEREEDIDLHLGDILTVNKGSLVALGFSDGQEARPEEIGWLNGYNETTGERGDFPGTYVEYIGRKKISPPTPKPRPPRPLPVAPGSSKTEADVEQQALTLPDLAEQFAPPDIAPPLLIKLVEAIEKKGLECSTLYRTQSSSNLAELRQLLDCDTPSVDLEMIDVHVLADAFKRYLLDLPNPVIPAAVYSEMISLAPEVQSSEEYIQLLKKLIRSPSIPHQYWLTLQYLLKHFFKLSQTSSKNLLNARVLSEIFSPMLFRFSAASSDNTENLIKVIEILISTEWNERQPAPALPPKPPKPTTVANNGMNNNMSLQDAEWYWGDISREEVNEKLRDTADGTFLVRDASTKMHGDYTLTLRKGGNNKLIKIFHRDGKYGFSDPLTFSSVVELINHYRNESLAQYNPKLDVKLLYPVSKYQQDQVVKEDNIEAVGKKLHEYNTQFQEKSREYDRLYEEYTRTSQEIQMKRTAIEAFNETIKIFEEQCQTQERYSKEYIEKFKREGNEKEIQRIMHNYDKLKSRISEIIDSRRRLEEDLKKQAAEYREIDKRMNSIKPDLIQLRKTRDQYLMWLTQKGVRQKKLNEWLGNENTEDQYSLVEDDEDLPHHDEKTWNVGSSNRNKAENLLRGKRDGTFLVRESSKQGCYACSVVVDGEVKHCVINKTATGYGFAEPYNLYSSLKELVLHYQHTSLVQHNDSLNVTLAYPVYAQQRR
The experiment in a line: PI3K-Alpha Kinase (PIK3CA) biochemical activity, H1047R mutant (ADP-Glo). To be noted: 20 uM ATP. In a few lines: as §1

Setting [4] is: 0% FBS, 3 hours treatment, read-out: PI3K-α (PIK3CA) in vitro cell based assay IC50.
The mark [5] stands for this setting: read-out: PI3K-α (PIK3CA) in vitro cell based assay IC50, 0% FBS, 3 hours treatment.

Structures are written as SMILES. Read-outs that look alike come from different tables or passages of the source.

The values below come from US20230014445A1, “ALLOSTERIC CHROMENONE INHIBITORS OF PHOSPHOINOSITIDE 3-KINASE (PI3K) FOR THE TREATMENT OF DISEASE” (Petra Pharma Corporation, priority 2021, published 2023).

As usually defined, the IC50 is the concentration that inhibits the measured activity by half.

Sequence of PI3K-α (PIK3CA) in MDA-MB-453 cells (P42336 whole entry): as the sequence (P42336 whole entry H1047R) above, with R1047H counted along it
Sequence of PI3K-α (PIK3CA) in MDA-MB-453 cells (P27986 2-724, further chain): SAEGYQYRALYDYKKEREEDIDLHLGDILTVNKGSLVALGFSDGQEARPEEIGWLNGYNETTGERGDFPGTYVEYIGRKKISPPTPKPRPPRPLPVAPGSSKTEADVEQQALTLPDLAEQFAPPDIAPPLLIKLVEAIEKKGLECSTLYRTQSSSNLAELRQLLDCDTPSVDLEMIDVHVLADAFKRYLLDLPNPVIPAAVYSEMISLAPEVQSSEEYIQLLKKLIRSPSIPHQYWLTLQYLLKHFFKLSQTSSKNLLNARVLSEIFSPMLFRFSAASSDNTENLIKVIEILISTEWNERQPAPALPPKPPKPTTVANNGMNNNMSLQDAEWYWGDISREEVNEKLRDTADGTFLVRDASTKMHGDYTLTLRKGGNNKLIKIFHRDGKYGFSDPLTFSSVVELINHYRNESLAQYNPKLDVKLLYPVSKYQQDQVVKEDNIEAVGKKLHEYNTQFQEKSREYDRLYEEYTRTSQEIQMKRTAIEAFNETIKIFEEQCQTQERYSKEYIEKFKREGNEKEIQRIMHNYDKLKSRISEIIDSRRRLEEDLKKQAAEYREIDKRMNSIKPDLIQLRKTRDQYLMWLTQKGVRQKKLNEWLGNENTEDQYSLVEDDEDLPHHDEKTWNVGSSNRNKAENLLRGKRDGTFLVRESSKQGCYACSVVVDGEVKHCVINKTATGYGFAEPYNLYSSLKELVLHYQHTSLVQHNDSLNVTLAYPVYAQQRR

Turning to `COc1cccc(-c2nnc(-c3cc(=O)c4cc(C)cc(C(C)Nc5ccccc5C(=O)O)c4o3)o2)c1` (single isomer, unassigned; isomer 2) [Example 84, 2-[1-[2-[5-(3-Methoxyphenyl)-1,3,4-oxadiazol-2-yl]-6-methyl-4-oxo-chromen-8-yl]ethylamino]benzoic acid, Isomer 2], the IC50 is 100 to 500 nM in assay [1] (setting [4]), 1 to 5 µM in assay [2] (Soy PI lipid substrate) and less than 500 nM in assay [3] (Soy PI lipid substrate).

As for `Cc1cc(C(C)Nc2cccc(F)c2C(=O)O)c2oc(-c3ccccn3)cc(=O)c2c1` (single isomer, unassigned; isomer 1) [Example 110, 2-Fluoro-6-[1-[6-methyl-4-oxo-2-(2-pyridyl)chromen-8-yl]ethylamino]benzoic acid, Isomer 1], the values for the IC50 in assay [1] (setting [4]), in assay [2] (Soy PI lipid substrate) and in assay [3] (Soy PI lipid substrate) were 100 to 500 nM, 1 to 5 µM and less than 500 nM, respectively.

Turning to `Cc1cc(C(C)Nc2ccccc2C(=O)O)c2oc(-c3ccc(S(C)(=O)=O)nc3)cc(=O)c2c1` (single isomer, unassigned; isomer 1) [Example 39, 2-[1-[6-Methyl-2-(6-methylsulfonyl-3-pyridyl)-4-oxo-chromen-8-yl]ethylamino]benzoic acid, Isomer 1], the IC50 is more than 500 nM in assay [1] (setting [4]), more than 10 µM in assay [2] (Soy PI lipid substrate) and more than 10000 nM in assay [3] (Soy PI lipid substrate).

As for `CC(Nc1ccccc1C(=O)O)c1cc(F)cc2c(=O)cc(-c3ccccn3)oc12` (single isomer, unassigned) [Example 46, 2-[1-[6-Fluoro-4-oxo-2-(2-pyridyl)chromen-8-yl]ethylamino]benzoic acid, Isomer 1,2,2,2-trifluoroacetic acid], the figures for the IC50 in assay [1] (setting [5]), in assay [2] (Soy PI lipid substrate) and in assay [3] (Soy PI lipid substrate) were less than 50 nM, 5 to 10 µM and less than 500 nM, respectively.

Take `Cc1cc(C(C)Nc2ccccc2C(=O)O)c2oc(-c3nccnc3C)cc(=O)c2c1` (single isomer, unassigned; isomer 2) [Example 29, 2-[1-[6-Methyl-2-(3-methylpyrazin-2-yl)-4-oxo-chromen-8-yl]ethylamino]benzoic acid, Isomer 2]: the IC50 in assay [1] (setting [4]) is 100 to 500 nM; in assay [2] (Soy PI lipid substrate) it was 5 to 10 µM; in assay [3] (Soy PI lipid substrate) it was less than 500 nM.

As to `Cc1cc(C(C)Nc2ccc(Br)nc2C(=O)O)c2oc(-c3cccnc3)c(C)c(=O)c2c1` (single isomer, unassigned; isomer 1) [Example 129, 6-Bromo-3-[1-[3,6-dimethyl-4-oxo-2-(3-pyridyl)chromen-8-yl]ethylamino]pyridine-2-carboxylic acid, Isomer 1], the IC50 in assay [1] (setting [4]) was less than 50 nM; in assay [2] (Soy PI lipid substrate) it was less than 0.5 µM; in assay [3] (Soy PI lipid substrate) it was less than 500 nM.

Turning to `COc1ccc(-n2cc(-c3cc(=O)c4cc(C)cc(C(C)Nc5ccccc5C(=O)O)c4o3)cn2)cc1` (single isomer, unassigned) [Example 79, 2-[1-[2-[1-(4-Methoxyphenyl)pyrazol-4-yl]-6-methyl-4-oxo-chromen-8-yl]ethylamino]benzoic acid, Isomer 2,2,2,2-trifluoroacetic acid], the IC50 in assay [1] (setting [5]) was 50 to 100 nM; in assay [2] (Soy PI lipid substrate), 1 to 5 µM; in assay [3] (Soy PI lipid substrate), less than 500 nM.

With `Cc1cc(C(C)Nc2cccc(F)c2C(=O)O)c2oc(-c3ccccn3)cc(=O)c2c1` (single isomer, unassigned; isomer 2) [Example 111, 2-Fluoro-6-[1-[6-methyl-4-oxo-2-(2-pyridyl)chromen-8-yl]ethylamino]benzoic acid, Isomer 2], the results for the IC50 in assay [1] (setting [4]), in assay [2] (Soy PI lipid substrate) and in assay [3] (Soy PI lipid substrate) were more than 500 nM, 1 to 5 µM and 1000 to 5000 nM, respectively.

As for `Cc1cc(C(C)Nc2ccccc2C(=O)O)c2oc(-c3cnc(C)nc3)cc(=O)c2c1` (single isomer, unassigned; isomer 2) [Example 33, 2-[1-[6-Methyl-2-(2-methylpyrimidin-5-yl)-4-oxo-chromen-8-yl]ethylamino]benzoic acid, Isomer 2], the IC50 is more than 500 nM in assay [1] (setting [4]), more than 10 µM in assay [2] (PIP2diC8 lipid substrate) and more than 10000 nM in assay [3] (PIP2diC8 lipid substrate).

`Cc1cc(C(C)Nc2ccccc2C(=O)O)c2oc(-c3cnc(N(C)C)s3)c(C)c(=O)c2c1` (single isomer, unassigned; isomer 1) [Example 130, 2-[1-[2-[2-(Dimethylamino)thiazol-5-yl]-3,6-dimethyl-4-oxo-chromen-8-yl]ethylamino]benzoic acid, Isomer 1]: the figures for the IC50 in assay [1] (setting [4]), in assay [2] (Soy PI lipid substrate) and in assay [3] (Soy PI lipid substrate) were less than 50 nM, 0.5 to 1 µM and less than 500 nM, respectively.
